Laboratory results: patent US20250326708A1, “LONG-ACTING SPLEEN-TARGETING CATIONIC LIPID COMPOUND COMPRISING BENZENE RING STRUCTURE, COMPOSITION COMPRISING SAME, AND USE THEREOF” (Beijing Youcarekechuang Pharmaceutical Technology Co., Ltd., priority 2024, published 2025)
“And” between values parts separate entries of the source, which are not always exact repeats. Equal entries are not always repeated.

Legend:
female BALB/C mice [1] = experiment: Expression of delivered mRNA in mice in vivo (IVIS in vivo imaging); details: 10 μg Fluc-mRNA via tail vein
Procedure: LNP preparations containing 10 μg of Fluc-mRNA were injected via the tail vein into female BALB/C mice (4 to 6 weeks old, weighing 17 to 19 g). At specified time points after administration (6 h, 24 h, 48 h, and 7 d), the mice were intraperitoneally injected with fluorescent imaging substrates and allowed to move freely for 5 minutes. The average radiation intensity (corresponding to fluorescence intensity) of proteins expressed by the mRNA delivered by the LNP preparations in the mice in vivo was then detected using the IVIS Spectrum small-animal in vivo imaging system.

female BALB/C mice [2] = experiment: Expression of delivered mRNA in different organs of mice (organ imaging); type: in vivo
Procedure: LNP preparations containing 5 μg of Fluc-mRNA were subcutaneously injected into female BALB/C mice (4 to 6 weeks old, weighing 17 to 19 g). At specified time points after administration (6 h), the mice were intraperitoneally injected with fluorescent imaging substrates and allowed to move freely for 5 minutes. The average radiation intensity (corresponding to fluorescence intensity) of proteins expressed by the mRNA delivered by the LNP preparations in the mice in vivo was then detected using the IVIS Spectrum small-animal in vivo imaging system. After sampling, the mice were killed by cervical dislocation and dissected, and the internal organs: heart, liver, spleen, lung, kidney, and lymph of mice were accurately isolated. The average radiation intensity (corresponding to fluorescence intensity) of proteins expressed by the mRNA delivered by the LNP preparations in various organs of mice was then detected using the IVIS Spectrum small-animal in vivo imaging system.

[3] = Particle size and polydispersity index (PDI) of lipid nanoparticles, dynamic light scattering; type: physicochemical; details: LNP preparation with the named cationic lipid; 90° scattering angle, 25° C
Method in brief: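 LNPs of cationic lipid:DSPC:cholesterol:DMG-PEG2000 (49:10:39.5:1.5 molar) encapsulating eGFP or Fluc mRNA at 15:1 lipid:mRNA weight ratio, made by ethanol injection into citrate buffer pH 4–5, sonication, and ultrafiltration into PBS. Size and PDI by DLS at 90° and 25° C after dilution in water, three measurements per sample.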

293T cells [4] = experiment: Fluorescence detection of Fluc-mRNA (transfection efficiency) of LNP preparations; type: cell-based; details: Fluc-mRNA LNP
Method in brief: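 293T cells seeded at 10,000 per well in 96-well plates overnight, then dosed with LNPs (cationic lipid:DSPC:cholesterol:DMG-PEG2000 49:10:39.5:1.5 molar; total lipid:mRNA 15:1 w/w) carrying 0.3 μg Fluc-mRNA. After 24 h, luciferase kit reagents added and fluorescence intensity per well read by IVIS imaging.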

293T cells [5] = experiment: Cell viability assay (CCK-8) with LNP preparations of Fluc-mRNA; type: cell-based
Method in brief: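 293T cells seeded at 10,000/well and cultured overnight, then given LNPs (cationic lipid:DSPC:cholesterol:DMG-PEG2000 49:10:39.5:1.5) carrying 1.5 μg Fluc-mRNA. After 24 h, viability measured by CCK-8 with 1 h incubation.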

[6] = 6 hours after 5 μg Fluc-mRNA subcutaneously

CCCCCCCCCCC(CCCCCCCC)COC(=O)CCCCCNC(CO)(CO)CCc1ccc(CCCCCCCC)cc1 (centres unmarked) [YK-912, 2-octyldodecyl 6-((1-hydroxy-2-(hydroxymethyl)-4-(4-octylphenyl)butan-2-yl)amino) hexanoate]
Average radiation intensity, in vivo imaging (female BALB/C mice [1]; 6 h): 7543664 | Average radiation intensity, in vivo imaging (female BALB/C mice [1]; 24 h): 932533 | Average radiation intensity, in vivo imaging (female BALB/C mice [1]; 48 h): 354363 | Average radiation intensity, in vivo imaging (female BALB/C mice [1]; 7 d): 56756 | Average radiation intensity of mouse organs: Heart (female BALB/C mice [2]; [6]): 0 | Average radiation intensity of mouse organs: Kidney (female BALB/C mice [2]; [6]): 0 | Average radiation intensity of mouse organs: Lung (female BALB/C mice [2]; [6]): 0 | Average radiation intensity of mouse organs: Lymph (female BALB/C mice [2]; [6]): 0 | Average radiation intensity of mouse organs: Spleen (female BALB/C mice [2]; [6]): 175366 | Expression level of mRNA in the spleen, times that of SM-102 (female BALB/C mice [2]; spleen, 6 h, vs SM-102): 6.86 times | Expression level of mRNA in the spleen, times that of YK-501 (female BALB/C mice [2]; spleen, 6 h, vs YK-501): 12.33 times | Expression level of mRNA in the spleen, times that of YK-506 (female BALB/C mice [2]; spleen, 6 h, vs YK-506): 2.46 times | PDI [3]: 9.5% | Particle size [3]: 123 nm | Cellular transfection efficiency, times that of HHMA (293T cells [4]; vs HHMA): 5.65 times | Cellular transfection efficiency, times that of I-1 (293T cells [4]; vs I-1): 28.16 times | Cellular transfection efficiency, times that of Lipofectamine 3000 (293T cells [4]; vs Lipofectamine 3000): 6.77 times | Cellular transfection efficiency, times that of MC3 (293T cells [4]; vs MC3): 60.16 times | Cellular transfection efficiency, times that of SM-102 (293T cells [4]; vs SM-102): 4.00 times | Cellular transfection efficiency, times that of YK-501 (293T cells [4]; vs YK-501): 123.46 times | Cellular transfection efficiency, times that of YK-506 (293T cells [4]; vs YK-506): 8.73 times | Cellular transfection efficiency, times that of YK-901 (293T cells [4]; vs YK-901): 131 times and 131.47 times | Cellular transfection efficiency, times that of YK-902 (293T cells [4]; vs YK-902): 18.35 times | Cellular transfection efficiency, times that of YK-903 (293T cells [4]; vs YK-903): 228 times and 228.30 times | Cellular transfection efficiency, times that of YK-904 (293T cells [4]; vs YK-904): 45.65 times | Cellular transfection efficiency, times that of YK-905 (293T cells [4]; vs YK-905): 78.83 times | Cellular transfection efficiency, times that of YK-911 (293T cells [4]; vs YK-911): 4.39 times | Cellular transfection efficiency, times that of compound 7 (293T cells [4]; vs compound 7): 22.17 times | Cell viability (293T cells [5]; LNP with 1.5 μg Fluc-mRNA, 24 hours, CCK-8): 87% | Cell viability higher than that of YK-901 (293T cells [5]; difference vs YK-901): 29% | Cell viability higher than that of YK-902 (293T cells [5]; difference vs YK-902): 51% | Cell viability higher than that of YK-903 (293T cells [5]; difference vs YK-903): 40% | Cell viability higher than that of YK-904 (293T cells [5]; difference vs YK-904): 35% | Cell viability higher than that of YK-905 (293T cells [5]; difference vs YK-905): 36% | Cell viability higher than that of YK-911 (293T cells [5]; difference vs YK-911): 25%
